Experiments:
Experiment in all cases: relative viability (nuclei count vs DMSO), 5 days (fraction); higher = more cells survive
[1] = system: NCI-H1666
Outline: (§1)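 The day after seeding in 1536-well plates, lung cancer cell lines were treated by pin tool with a single drug, or with a fixed anchor-drug dose together with five library-drug doses (not always all listed) in √10 steps. After 5 days, a combined fix-and-stain solution (final 0.05% Triton X-100, 1% formaldehyde, 1 ug/ml Hoechst) was added. Nuclei counted on 4× images gave relative viability as treated counts over vehicle counts, reported as the median of duplicate plates.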

[2] = system: NCI-H2347
Outline: as §1

[3] = system: NCI-H838
Outline: as §1

[4] = system: NCI-H1975
Outline: as §1

[5] = system: NCI-H358
Outline: as §1

[6] = system: HARA
Outline: as §1

[7] = system: LU99A
Outline: as §1

[8] = system: NCI-H1734
Outline: as §1

[9] = system: HCC-366
Outline: as §1

[10] = system: PC-3 [JPC-3]
Outline: as §1

[11] = system: NCI-H3122
Outline: as §1

[12] = system: NCI-H2405
Outline: as §1

[13] = system: LXF-289
Outline: as §1

[14] = system: NCI-H661
Outline: as §1

[15] = system: NCI-H650
Outline: as §1

[16] = system: NCI-H1792
Outline: as §1

[17] = system: HCC-15
Outline: as §1

[18] = system: NCI-H460
Outline: as §1

[19] = system: NCI-H1944
Outline: as §1

[20] = system: SW 1573
Outline: as §1

[21] = system: NCI-H1793
Outline: as §1

[22] = system: NCI-H2228
Outline: as §1

Cc1cn(-c2cc(NC(=O)c3ccc(C)c(Nc4nccc(-c5cccnc5)n4)c3)cc(C(F)(F)F)c2)cn1 [Nilotinib] + Nc1nc2[nH]cc(CCc3ccc(C(=O)N[C@@H](CCC(=O)O)C(=O)O)cc3)c2c(=O)[nH]1 [Pemetrexed] (partner 0.2 µM)
relative viability ([1]; first compound 0.001 µM): 0.768 | relative viability ([1]; first compound 0.003162 µM): 0.78 | relative viability ([1]; first compound 0.01 µM): 0.846 | relative viability ([1]; first compound 0.03162 µM): 0.717 | relative viability ([1]; first compound 0.1 µM): 0.9 | relative viability ([2]; first compound 0.001 µM): 0.401 | relative viability ([2]; first compound 0.003162 µM): 0.384 | relative viability ([2]; first compound 0.01 µM): 0.435 | relative viability ([2]; first compound 0.03162 µM): 0.517 | relative viability ([2]; first compound 0.1 µM): 0.418 | relative viability ([3]; first compound 0.001 µM): 0.246 | relative viability ([3]; first compound 0.003162 µM): 0.258 | relative viability ([3]; first compound 0.01 µM): 0.261 | relative viability ([3]; first compound 0.03162 µM): 0.252 | relative viability ([3]; first compound 0.1 µM): 0.228 | relative viability ([4]; first compound 0.001 µM): 0.294 | relative viability ([4]; first compound 0.003162 µM): 0.298 | relative viability ([4]; first compound 0.01 µM): 0.257 | relative viability ([4]; first compound 0.03162 µM): 0.211 | relative viability ([4]; first compound 0.1 µM): 0.235 | relative viability ([5]; first compound 0.001 µM): 0.187 | relative viability ([5]; first compound 0.003162 µM): 0.175 | relative viability ([5]; first compound 0.01 µM): 0.169 | relative viability ([5]; first compound 0.03162 µM): 0.144 | relative viability ([5]; first compound 0.1 µM): 0.152 | relative viability ([6]; first compound 0.001 µM): 0.311 | relative viability ([6]; first compound 0.003162 µM): 0.235 | relative viability ([6]; first compound 0.01 µM): 0.198 | relative viability ([6]; first compound 0.03162 µM): 0.184 | relative viability ([6]; first compound 0.1 µM): 0.214 | relative viability ([7]; first compound 0.001 µM): 0.158 | relative viability ([7]; first compound 0.003162 µM): 0.202 | relative viability ([7]; first compound 0.01 µM): 0.177 | relative viability ([7]; first compound 0.03162 µM): 0.225 | relative viability ([7]; first compound 0.1 µM): 0.155 | relative viability ([8]; first compound 0.001 µM): 0.443 | relative viability ([8]; first compound 0.003162 µM): 0.346 | relative viability ([8]; first compound 0.01 µM): 0.364 | relative viability ([8]; first compound 0.03162 µM): 0.388 | relative viability ([8]; first compound 0.1 µM): 0.31 | relative viability ([9]; first compound 0.001 µM): 0.157 | relative viability ([9]; first compound 0.003162 µM): 0.129 | relative viability ([9]; first compound 0.01 µM): 0.163 | relative viability ([9]; first compound 0.03162 µM): 0.106 | relative viability ([9]; first compound 0.1 µM): 0.115 | relative viability ([10]; first compound 0.001 µM): 1.02 | relative viability ([10]; first compound 0.01 µM): 0.889 | relative viability ([10]; first compound 0.03162 µM): 1.05 | relative viability ([10]; first compound 0.1 µM): 0.599 | relative viability ([11]; first compound 0.001 µM): 0.18 | relative viability ([11]; first compound 0.003162 µM): 0.226 | relative viability ([11]; first compound 0.01 µM): 0.212 | relative viability ([11]; first compound 0.03162 µM): 0.2 | relative viability ([11]; first compound 0.1 µM): 0.195 | relative viability ([12]; first compound 0.001 µM): 1.03 | relative viability ([12]; first compound 0.003162 µM): 0.91 | relative viability ([12]; first compound 0.01 µM): 0.924 | relative viability ([12]; first compound 0.03162 µM): 0.699 | relative viability ([12]; first compound 0.1 µM): 0.614 | relative viability ([13]; first compound 0.001 µM): 0.836 | relative viability ([13]; first compound 0.003162 µM): 1.07 | relative viability ([13]; first compound 0.01 µM): 1.01 | relative viability ([13]; first compound 0.03162 µM): 0.878 | relative viability ([13]; first compound 0.1 µM): 0.519 | relative viability ([14]; first compound 0.001 µM): 0.966 | relative viability ([14]; first compound 0.003162 µM): 1.03 | relative viability ([14]; first compound 0.01 µM): 1.07 | relative viability ([14]; first compound 0.03162 µM): 0.888 | relative viability ([14]; first compound 0.1 µM): 0.893 | relative viability ([15]; first compound 0.001 µM): 0.887 | relative viability ([15]; first compound 0.003162 µM): 0.86 | relative viability ([15]; first compound 0.01 µM): 1.12 | relative viability ([15]; first compound 0.03162 µM): 0.914 | relative viability ([15]; first compound 0.1 µM): 0.746 | relative viability ([16]; first compound 0.001 µM): 0.623 | relative viability ([16]; first compound 0.003162 µM): 0.899 | relative viability ([16]; first compound 0.01 µM): 0.72 | relative viability ([16]; first compound 0.03162 µM): 0.525 | relative viability ([16]; first compound 0.1 µM): 0.709 | relative viability ([17]; first compound 0.001 µM): 0.213 | relative viability ([17]; first compound 0.003162 µM): 0.205 | relative viability ([17]; first compound 0.01 µM): 0.204 | relative viability ([17]; first compound 0.03162 µM): 0.18 | relative viability ([17]; first compound 0.1 µM): 0.162 | relative viability ([18]; first compound 0.001 µM): 0.0733 | relative viability ([18]; first compound 0.003162 µM): 0.0599 | relative viability ([18]; first compound 0.01 µM): 0.0632 | relative viability ([18]; first compound 0.03162 µM): 0.0736 | relative viability ([18]; first compound 0.1 µM): 0.0505 | relative viability ([19]; first compound 0.001 µM): 0.56 | relative viability ([19]; first compound 0.003162 µM): 0.519 | relative viability ([19]; first compound 0.01 µM): 0.566 | relative viability ([19]; first compound 0.03162 µM): 0.578 | relative viability ([19]; first compound 0.1 µM): 0.265 | relative viability ([20]; first compound 0.001 µM): 0.801 | relative viability ([20]; first compound 0.003162 µM): 0.994 | relative viability ([20]; first compound 0.01 µM): 0.91 | relative viability ([20]; first compound 0.03162 µM): 0.541 | relative viability ([20]; first compound 0.1 µM): 0.171 | relative viability ([21]; first compound 0.001 µM): 0.996 | relative viability ([21]; first compound 0.003162 µM): 0.965 | relative viability ([21]; first compound 0.01 µM): 1.07 | relative viability ([21]; first compound 0.03162 µM): 0.903 | relative viability ([21]; first compound 0.1 µM): 0.359 | relative viability ([22]; first compound 0.001 µM): 0.358 | relative viability ([22]; first compound 0.003162 µM): 0.357 | relative viability ([22]; first compound 0.01 µM): 0.282 | relative viability ([22]; first compound 0.03162 µM): 0.216 | relative viability ([22]; first compound 0.1 µM): 0.165

From the supplement of paper PMC10307832
